{"source": "patent US12201611B2", "about": "“Composition comprising high purity pyrrole derivative and method for preparation thereof” (Zydus Lifesciences Limited, priority 2020, dated 2025)", "key": {"[1]": {"assay": "Stability data at 40° C. ± 2° C. and 75% ± 5% relative humidity (six months)", "format": "physicochemical", "settings": "75% ± 5% RH", "experimental": "(§1) As used herein, the term “prolonged storage” refers to storage for up to 6 months and different stability conditions refers to storage at 25° C. temperature and 60% relative humidity; or at 40° C. temperature and 75% relative humidity.\n(§2) In another general aspect, there is provided a stable composition of Saroglitazar magnesium, wherein the composition contains Saroglitazar magnesium having purity of about 99.0% or more, by weight, by area percentage of HPLC, and one or more of the aldehyde compound of Formula (II), the diketo oxirane compound of Formula (III), the hydroxy methyl compound of Formula (IV), or the dimer compound of Formula (V) in an amount of about 0.15%, or less, by weight, relative to saroglitazar magnesium, on prolonged storage and under different stability conditions i.e. 40° C.±2° C. temperature and 75%±5% relative humidity and at 25° C.±2° C. temperature and 60±5% relative humidity as outlined by the six months' stability data as shown in Table-2 and 3.\n(§3) The purity of the samples of Saroglitazar or salts thereof including magnesium and SMBA salt is measured by area percentage of HPLC using following conditions:\n(§4) Equipment: Shimadzu LC2020CHT HPLC system or equivalent\n(§5) Column: YMC-Pack Pro C18 ([…]×4.0 mm, 3 μm)\n(§6) Detector: UV-VIS detector or PDA detector\n(§7) Column Oven Temp.: 25° C."}, "[2]": {"assay": "Stability data at 25° C. ± 2° C. and 60% ± 5% relative humidity (six months)", "format": "physicochemical", "settings": "60% ± 5% RH", "experimental": "as §1, §2, §3, §4, §5, §6, §7"}}, "data": [{"substance": "2-ethoxy-3-(4-(2-(2-methyl-5-(4-(methylthio)phenyl)-1H-pyrrol-1-yl)ethoxy)phenyl)propanoate [Saroglitazar magnesium]", "values": [{"measurement": "LOD", "setting": "[1]; 1 month", "result": 0.48, "unit": "% w/w"}, {"measurement": "Related Substance by HPLC: Formula II", "setting": "[1]; 1 month", "result": 0.01, "unit": "% w/w"}, {"measurement": "Related Substance by HPLC: Formula V", "setting": "[1]; 1 month", "result": 0.12, "unit": "% w/w"}, {"measurement": "Related Substance by HPLC: Total impurities", "setting": "[1]; 1 month", "result": 0.12, "unit": "% w/w"}, {"measurement": "LOD", "setting": "[1]; 2 month", "result": 0.44, "unit": "% w/w"}, {"measurement": "Related Substance by HPLC: Formula II", "setting": "[1]; 2 month", "result": 0.01, "unit": "% w/w"}, {"measurement": "Related Substance by HPLC: Formula V", "setting": "[1]; 2 month", "result": 0.12, "unit": "% w/w"}, {"measurement": "Related Substance by HPLC: Total impurities", "setting": "[1]; 2 month", "result": 0.12, "unit": "% w/w"}, {"measurement": "LOD", "setting": "[1]; 3 months", "result": 0.30, "unit": "% w/w"}, {"measurement": "Related Substance by HPLC: Formula II", "setting": "[1]; 3 months", "result": 0.01, "unit": "% w/w"}, {"measurement": "Related Substance by HPLC: Formula V", "setting": "[1]; 3 months", "result": 0.11, "unit": "% w/w"}, {"measurement": "Related Substance by HPLC: Total impurities", "setting": "[1]; 3 months", "result": 0.12, "unit": "% w/w"}, {"measurement": "LOD", "setting": "[1]; 6 months", "result": 0.24, "unit": "% w/w"}, {"measurement": "Related Substance by HPLC: Formula V", "setting": "[1]; 6 months", "result": 0.12, "unit": "% w/w"}, {"measurement": "Related Substance by HPLC: Total impurities", "setting": "[1]; 6 months", "result": 0.12, "unit": "% w/w"}, {"measurement": "LOD", "setting": "[1]; Initial", "result": 0.51, "unit": "% w/w"}, {"measurement": "Related Substance by HPLC: Formula II", "setting": "[1]; Initial", "result": 0.01, "unit": "% w/w"}, {"measurement": "Related Substance by HPLC: Formula V", "setting": "[1]; Initial", "result": 0.11, "unit": "% w/w"}, {"measurement": "Related Substance by HPLC: Total impurities", "setting": "[1]; Initial", "result": 0.18, "unit": "% w/w"}, {"measurement": "LOD", "setting": "[2]; 1 month", "result": 0.43, "unit": "% w/w"}, {"measurement": "Related Substance by HPLC: Formula II", "setting": "[2]; 1 month", "result": 0.01, "unit": "% w/w"}, {"measurement": "Related Substance by HPLC: Formula V", "setting": "[2]; 1 month", "result": 0.12, "unit": "% w/w"}, {"measurement": "Related Substance by HPLC: Total impurities", "setting": "[2]; 1 month", "result": 0.12, "unit": "% w/w"}, {"measurement": "LOD", "setting": "[2]; 2 month", "result": 0.64, "unit": "% w/w"}, {"measurement": "Related Substance by HPLC: Formula II", "setting": "[2]; 2 month", "result": 0.01, "unit": "% w/w"}, {"measurement": "Related Substance by HPLC: Formula V", "setting": "[2]; 2 month", "result": 0.12, "unit": "% w/w"}, {"measurement": "Related Substance by HPLC: Total impurities", "setting": "[2]; 2 month", "result": 0.12, "unit": "% w/w"}, {"measurement": "LOD", "setting": "[2]; 3 months", "result": 0.27, "unit": "% w/w"}, {"measurement": "Related Substance by HPLC: Formula II", "setting": "[2]; 3 months", "result": 0.01, "unit": "% w/w"}, {"measurement": "Related Substance by HPLC: Formula V", "setting": "[2]; 3 months", "result": 0.12, "unit": "% w/w"}, {"measurement": "Related Substance by HPLC: Total impurities", "setting": "[2]; 3 months", "result": 0.12, "unit": "% w/w"}, {"measurement": "LOD", "setting": "[2]; 6 months", "result": 0.35, "unit": "% w/w"}, {"measurement": "Related Substance by HPLC: Formula V", "setting": "[2]; 6 months", "result": 0.12, "unit": "% w/w"}, {"measurement": "Related Substance by HPLC: Total impurities", "setting": "[2]; 6 months", "result": 0.12, "unit": "% w/w"}, {"measurement": "LOD", "setting": "[2]; Initial", "result": 0.51, "unit": "% w/w"}, {"measurement": "Related Substance by HPLC: Formula II", "setting": "[2]; Initial", "result": 0.01, "unit": "% w/w"}, {"measurement": "Related Substance by HPLC: Formula V", "setting": "[2]; Initial", "result": 0.11, "unit": "% w/w"}, {"measurement": "Related Substance by HPLC: Total impurities", "setting": "[2]; Initial", "result": 0.18, "unit": "% w/w"}]}]}
